Test results as given in US5574043A, “Certain [1,2,5-thiadiazol-4-yl]-1-azabicyclo [3.2.1]octane derivatives and their pharmaceutical uses” (Novo Nordisk A/S, priority 1995, dated 1996).
Structures can show the parent of a compound that is named as a salt.

Each molecule was assayed against muscarinic acetylcholine receptors (assay: Inhibition of specific binding of 3H-Oxotremorine-M (OXO BINDING) in vitro, rat cortex). Conditions: rat cortex homogenate, 3H-Oxotremorine 1.0 nM, 30 min at 25° C., pH 7.4.
Parameters: species or system male Wistar rats
Text: The pharmacological properties of the compounds of the invention can be illustrated by determining their capability to inhibit the specific binding of ^3 H-Oxotremorine-M (^3 H-Oxo). Birdsdall N. J. M., Hulme E. C., and Burgen A. S. V. (1980). "The Character of Muscarinic Receptors in Different Regions of the Rat Brain". Proc. Roy. Soc. London (Series B) 207,1.
^3 H-Oxo labels muscarinic receptor in the CNS (with a preference for agonist domains of the receptors). Three different sites are labelled by ^3 H-Oxo. […] Using the present experimental conditions only the high and medium affinity sites are determined.
The inhibitory effects of compounds on ^3 H-Oxo binding reflects the affinity for muscarinic acetylcholine receptors.
All preparations are performed at 0°-4° C. unless otherwise indicated. Fresh cortex (0.1-1 g) from male Wistar rats (150-250 g) is homogenized for 5-10 s in 10 ml 20 mM Hepes pH: 7.4, with an Ultra-Turrax homogenizer. The homogenizer, is rinsed with 10 ml of buffer and the combined suspension centrifuged for 15 min at 40,000×g. The pellet is washed three times with buffer. In each step the pellet is homogenized as before in 2×10 ml of buffer and centrifuged for 10 min at 40,000×g.
The final pellet is homogenized in 20 mM Hepes pH: 7.4 (100 ml per g of original tissue) and used for binding assay. Aliquots of 0.5 ml is added 25 μl of test solution and 25 μl of ^3 H-Oxotremorine (1.0 nM, final concentration) mixed and incubated for 30 min at 25° C. Non-specific binding is determined in triplicate using arecoline (1 μg/ml, final concentration) as the test substance. After incubation samples are added 5 ml of ice-cold buffer and poured directly onto Whatman GF/C glass fibre filters under suction and immediately washed 2 times with 5 ml of ice-cold buffer. The amount of radioactivity on the filters are determined by conventional liquid scintillation counting. Specific binding is total binding minus non specific binding.
Test substances are dissolved in 10 ml water (if necessary heated on a steam bath for less than 5 minutes) at a concentration of 2.2 mg/ml.
The test value will be given as IC50 (the concentration (ng/ml) of the test substance which inhibits the specific binding of ^3 H-Oxo by 50%).
IC50 =(applied test substance concentration) [formula] where Co is specific binding in control assays and Cx is the specific binding in the test assay. (The calculations assume normal mass-action kinetics).

Q: For Clc1nsnc1[C@@H]1CN2CCC[C@@H]1C2 (relative stereo) [Compound 15, Exo-6-(3-chloro-1,2,5-thiadiazol-4-yl)-1-azabicyclo[3.2.1]octane], which “Inhibition in vitro OXO BINDING IC50” value is on record?
A: The value was 0.61 ng/mL.

Q: For Clc1nsnc1[C@H]1CN2CCC[C@@H]1C2 (relative stereo) [Compound 16, Endo-6-(3-chloro-1,2,5-thiadiazol-4-yl)-1-azabicyclo[3.2.1]octane-oxalate], which “Inhibition in vitro OXO BINDING IC50” value is on record?
A: Its value is 67 ng/mL.

Q: How did the “Inhibition in vitro OXO BINDING IC50” value turn out when CCCCCCSc1nsnc1[C@H]1CN2CCC[C@@H]1C2 (relative stereo) [Compound 17, Endo-6-(3-hexylthio-1,2,5-thiadiazol-4-yl)-1-azabicyclo[3.2.1]octane oxalate] was run?
A: Its value is 3.2 ng/mL.

Q: With C=CCCCCSc1nsnc1[C@H]1CN2CCC[C@@H]1C2 (relative stereo) [Compound 18, Endo-6-(3-(5-hexenylthio)-1,2,5-thiadiazol-4-yl)-1-azabicyclo[3.2.1]octane oxalate] as the molecule, how does the “Inhibition in vitro OXO BINDING IC50” value read?
A: Its value is 7.5 ng/mL.

Q: With CCOc1nsnc1[C@H]1CN2CCC[C@@H]1C2 (relative stereo) [Compound 20, Endo-6-(3-ethoxy-1,2,5-thiadiazol-4-yl)-1-azabicyclo[3.2.1]octane oxalate] as the molecule, how does the “Inhibition in vitro OXO BINDING IC50” value read?
A: The value was 11 ng/mL.

Q: Clc1nsnc1[C@@H]1CN2CC[C@@H]1C2 (relative stereo) [Compound 21, Exo-3-(3-chloro-1,2,5-thiadiazol-4-yl)-1-azabicyclo[2.2.1]heptane oxalate] was tested. Which “Inhibition in vitro OXO BINDING IC50” value did it give?
A: The value was 0.96 ng/mL.

Q: Which “Inhibition in vitro OXO BINDING IC50” value does the source give for Clc1nsnc1[C@H]1CN2CC[C@@H]1C2 (relative stereo) [Compound 22, Endo-3-(3-chloro-1,2,5-thiadiazol-4-yl)-1-azabicyclo[2.2.1]heptane oxalate] here?
A: The value was 3.4 ng/mL.

Q: COc1nsnc1[C@@H]1CN2CC[C@H]1C2 (relative stereo) [Compound 23, Endo-3-(3-methoxy-1,2,5-thiadiazol-4-yl)-1-azabicyclo[2.2.1]heptane oxalate] was tested. Which “Inhibition in vitro OXO BINDING IC50” value did it give?
A: Its value is 43 ng/mL.

Q: With CCCCSc1nsnc1[C@H]1CN2CCC[C@@H]1C2 (relative stereo) [Compound 24, Endo-6-(3-butylthio-1,2,5-thiadiazol-4-yl)-1-azabicyclo[3.2.1]octane oxalate] as the molecule, how does the “Inhibition in vitro OXO BINDING IC50” value read?
A: The value was 0.52 ng/mL.

Q: With CCSc1nsnc1[C@H]1CN2CCC[C@@H]1C2 (relative stereo) [Compound 25, Endo-6-(3-ethylthio-1,2,5-thiadiazol-4-yl)-1-azabicyclo[3.2.1]octane oxalate] as the molecule, how does the “Inhibition in vitro OXO BINDING IC50” value read?
A: The value was 1.9 ng/mL.

Q: How did the “Inhibition in vitro OXO BINDING IC50” value turn out when CCCCCSc1nsnc1[C@H]1CN2CCC[C@@H]1C2 (relative stereo) [Compound 26, Endo-6-(3-pentylthio-1,2,5-thiadiazol-4-yl)-1-azabicyclo[3.2.1]octane oxalate] was run?
A: The value was 1.4 ng/mL.

Q: c1ccc(CCCSc2nsnc2[C@H]2CN3CCC[C@@H]2C3)cc1 (relative stereo) [Compound 27, Endo-6-(3-(3-phenylpropylthio)-1,2,5-thiadiazol-4-yl)-1-azabicyclo[3.2.1]octane oxalate] was tested. Which “Inhibition in vitro OXO BINDING IC50” value did it give?
A: The value was 17 ng/mL.

Q: How did the “Inhibition in vitro OXO BINDING IC50” value turn out when N#Cc1ccc(CSc2nsnc2[C@H]2CN3CCC[C@@H]2C3)cc1 (relative stereo) [Compound 28, Endo-6-(3-(4-cyanobenzylthio)-1,2,5-thiadiazol-4-yl)-1-azabicyclo[3.2.1]octane oxalate] was run?
A: The value was 1.9 ng/mL.

Q: CCCCCCSc1nsnc1[C@H]1CN2CCC[C@H]1C2 (relative stereo) [Compound 29, Exo-6-(3-hexylthio-1,2,5-thiadiazol-4-yl)-1-azabicyclo[3.2.1]octane oxalate] was tested. Which “Inhibition in vitro OXO BINDING IC50” value did it give?
A: Its value is 0.39 ng/mL.

Q: Which “Inhibition in vitro OXO BINDING IC50” value does the source give for CCCCSc1nsnc1[C@H]1CN2CCC[C@H]1C2 (relative stereo) [Compound 30, Exo-6-(3-butylthio-1,2,5-thiadiazol-4-yl)-1-azabicyclo[3.2.1]octane oxalate] here?
A: The value was 0.13 ng/mL.

Q: With CCCCCSc1nsnc1[C@H]1CN2CCC[C@H]1C2 (relative stereo) [Compound 31, Exo-6-(3-pentylthio-1,2,5-thiadiazol-4-yl)-1-azabicyclo[3.2.1]octane oxalate] as the molecule, how does the “Inhibition in vitro OXO BINDING IC50” value read?
A: Its value is 0.6 ng/mL.

Q: For CCSc1nsnc1[C@H]1CN2CCC[C@H]1C2 (relative stereo) [Compound 32, Exo-6-(3-ethylthio-1,2,5-thiadiazol-4-yl)-1-azabicyclo[3.2.1]octane oxalate], which “Inhibition in vitro OXO BINDING IC50” value is on record?
A: Its value is 0.45 ng/mL.

Q: With CCCCCSc1nsnc1[C@@H]1CN2CC[C@H]1C2 (relative stereo) [Compound 33, Endo-3-(3-pentylthio-1,2,5-thiadiazol-4-yl)-1-azabicyclo[2.2.1]heptane fumarate] as the molecule, how does the “Inhibition in vitro OXO BINDING IC50” value read?
A: The value was 6.4 ng/mL.

Q: Which “Inhibition in vitro OXO BINDING IC50” value does the source give for CCCCCCSc1nsnc1[C@@H]1CN2CC[C@H]1C2 (relative stereo) [Compound 34, Endo-3-(3-hexylthio-1,2,5-thiadiazol-4-yl)-1-azabicyclo[2.2.1]heptane fumarate] here?
A: The value was 7.9 ng/mL.

Q: c1ccc(CCCSc2nsnc2[C@@H]2CN3CC[C@H]2C3)cc1 (relative stereo) [Compound 35, Endo-3-(3-(3-phenylpropylthio)-1,2,5-thiadiazol-4-yl)-1-azabicyclo[2.2.1]heptane oxalate] was tested. Which “Inhibition in vitro OXO BINDING IC50” value did it give?
A: The value was 1.9 ng/mL.

Q: CCCCSc1nsnc1[C@@H]1CN2CC[C@H]1C2 (relative stereo) [Compound 36, Endo-3-(3-butylthio-1,2,5-thiadiazol-4-yl)-1-azabicyclo[2.2.1]heptane fumarate] was tested. Which “Inhibition in vitro OXO BINDING IC50” value did it give?
A: The value was 0.82 ng/mL.

Q: For CCCSc1nsnc1[C@@H]1CN2CC[C@H]1C2 (relative stereo) [Compound 37, Endo:3-(3-propylthio-1,2,5-thiadiazol-4-yl)-1-azabicyclo[2.2.1]heptane oxalate], which “Inhibition in vitro OXO BINDING IC50” value is on record?
A: Its value is 2.0 ng/mL.

Q: How did the “Inhibition in vitro OXO BINDING IC50” value turn out when CCCCCCSc1nsnc1[C@H]1CN2CC[C@H]1C2 (relative stereo) [Compound 39, Exo-3-(3-hexylthio-1,2,5-thiadiazol-4-yl)-1-azabicyclo[2.2.1]heptane oxalate] was run?
A: The value was 0.52 ng/mL.

Q: CCCSc1nsnc1[C@H]1CN2CC[C@H]1C2 (relative stereo) [Compound 40, Exo-3-(3-propylthio-1,2,5-thiadiazol-4-yl)-1-azabicyclo[2.2.1]heptane oxalate] was tested. Which “Inhibition in vitro OXO BINDING IC50” value did it give?
A: The value was 0.19 ng/mL.

Q: Which “Inhibition in vitro OXO BINDING IC50” value does the source give for c1ccc(CCCSc2nsnc2[C@H]2CN3CC[C@H]2C3)cc1 (relative stereo) [Compound 41, Exo-3-(3-(3-phenylpropylthio)-1,2,5-thiadiazol-4-yl)-1-azabicyclo[2.2.1]heptane oxalate] here?
A: The value was 0.56 ng/mL.

Q: Which “Inhibition in vitro OXO BINDING IC50” value does the source give for CCCCSc1nsnc1[C@H]1CN2CC[C@H]1C2 (relative stereo) [Compound 42, Exo-3-(3-butylthio-1,2,5-thiadiazol-4-yl)-1-azabicyclo[2.2.1]heptane oxalate] here?
A: Its value is 0.35 ng/mL.

Q: For CCCSc1nsnc1[C@H]1CN2CCC[C@@H]1C2 (relative stereo) [Compound 57, Endo-6-(3-propylthio-1,2,5-thiadiazol-4-yl)-1-azabicyclo[3.2.1]octane oxalate], which “Inhibition in vitro OXO BINDING IC50” value is on record?
A: Its value is 4.6 ng/mL.

Q: CSc1nsnc1[C@H]1CN2CCC[C@H]1C2 (relative stereo) [Compound 74, Exo-6-(3-methylthio-1,2,5-thiadiazol-4-yl)-1-azabicyclo[3.2.1]octane oxalate] was tested. Which “Inhibition in vitro OXO BINDING IC50” value did it give?
A: Its value is 0.45 ng/mL.

Q: With CCCCCCCSc1nsnc1[C@H]1CN2CCC[C@H]1C2 (relative stereo) [Compound 75, Exo-6-(3-heptylthio-1,2,5-thiadiazol-4-yl)-1-azabicyclo[3.2.1]octane oxalate] as the molecule, how does the “Inhibition in vitro OXO BINDING IC50” value read?
A: The value was 0.96 ng/mL.

Q: CC(C)CCCSc1nsnc1[C@H]1CN2CCC[C@H]1C2 (relative stereo) [Compound 76, Exo-6-(3-isohexylthio-1,2,5-thiadiazol-4-yl)-1-azabicyclo[3.2.1]octane oxalate] was tested. Which “Inhibition in vitro OXO BINDING IC50” value did it give?
A: Its value is 2.6 ng/mL.

Q: For CC(C)CCSc1nsnc1[C@H]1CN2CCC[C@H]1C2 (relative stereo) [Compound 77, Exo-6-(3-isopentylthio-1,2,5-thiadiazol-4-yl)-1-azabicyclo[3.2.1]octane], which “Inhibition in vitro OXO BINDING IC50” value is on record?
A: Its value is 0.89 ng/mL.

Q: Which “Inhibition in vitro OXO BINDING IC50” value does the source give for N#CCCCCSc1nsnc1[C@H]1CN2CCC[C@H]1C2 (relative stereo) [Compound 78, Exo-6-(3-(4-cyanobutylthio)-1,2,5-thiadiazol-4-yl)-1-azabicyclo[3.2.1]octane oxalate] here?
A: Its value is 0.30 ng/mL.
